Source: patent US7989657B2, “Anthranilic acid derivatives” (Hoffmann-La Roche Inc., priority 2005, dated 2011)

What was measured:
HM74A = target: T1, HM74A (Homo sapiens, UniProt Q8TDS4); assay: Secondary fluorescent calcium indicator assay (FLIPR); format: cell-based; conditions: stable transfected HEK-293 cells expressing HM74A and chimeric G protein Gqi9; % stimulation of maximal nicotinic acid response (100 μM)
T1 construct: expressed in transfected cells; host or cells: HEK-293, stably transfected with pcDNA3.1 vectors
T1 sequence (Q8TDS4 whole entry): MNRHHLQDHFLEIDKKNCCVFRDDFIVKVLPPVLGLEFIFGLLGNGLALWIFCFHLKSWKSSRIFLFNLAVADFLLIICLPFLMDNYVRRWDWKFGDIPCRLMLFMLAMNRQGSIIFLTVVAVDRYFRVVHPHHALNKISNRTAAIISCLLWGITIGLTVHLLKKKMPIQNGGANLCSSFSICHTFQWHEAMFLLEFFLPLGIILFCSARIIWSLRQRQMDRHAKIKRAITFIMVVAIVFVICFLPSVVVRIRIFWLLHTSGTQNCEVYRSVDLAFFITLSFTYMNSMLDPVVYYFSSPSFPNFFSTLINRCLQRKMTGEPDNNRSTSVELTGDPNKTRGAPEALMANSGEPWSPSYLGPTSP
Protocol: Secondary Fluorescent Calcium Indicator Assay (FLIPR)
HEK-293 cells were grown in tissue culture medium (DMEM/Nut mix F12 Medium with Glutamax I (Invitrogen), containing 10% FBS) at 37° C. in a 5% CO2 atmosphere. These cells were cultured in 6-well dishes at 3×10^5 cells/well and double transfected with DNA vectors (pcDNA3.1, Invitrogen) expressing either HM74A or HM74 and the chimeric G protein Gqi9. Two days after transfection the wells were combined and plated in 150 cm^2 flasks, in the presence of 50 μg/ml Hygromycin (Invitrogen) and 500 μg/ml Geneticin (Gibco). Fourteen days after plating, colonies were picked, expanded and analyzed for expression using a functional assay (FLIPR). Stable transfected HEK-293 cells expressing either HM74A or HM74 and the chimeric G protein Gqi9 were plated at 50,000 cells/well in black 96-well plates with clear bottom (Costar) and cultured to confluency overnight in growth media (DMEM/Nut mix F12 Medium with Glutamax I (Invitrogen), containing 10% FBS) at 37° C. in a humidified cell incubator containing 5% CO2. Growth media was aspirated and replaced with 100 μl of 1×FLIPR Calcium Assay Dye (Molecular Devices) in Hank's balanced salt solution (HBSS) containing 10 mM HEPES, and […] probenecid (Sigma), for 1 hour at 37° C. Cell plates were transferred to a FLIPR unit (Molecular Devices), and 50 μl of 3× compound dilution were added. Fluorescence emissions were measured and the effects of compounds were expressed as % stimulation of maximal nicotinic acid response (100 μM). Sigmoidal curves were fitted using the XLfit3 program (ID Business Solutions Ltd. UK) and EC50 values determined.

| EC50 (HM74A) [nM] | melting point [°C] | Compound |
| --- | --- | --- |
| 101 | – | O=C(Nc1ccccc1C(=O)O)c1ccc(Oc2cc(F)ccc2F)cc1 [Example 29, 2-[4-(2,5-Difluoro-phenoxy)-benzoylamino]-benzoic acid] |
| 529 | – | O=C(Nc1ccccc1C(=O)O)c1ccc(Oc2cccc(Cl)c2)cc1 [Example 17, 2-[4-(3-Chloro-phenoxy)-benzoylamino]-benzoic acid] |
| – | 123 | Cc1cc(C(=O)Nc2ccccc2C(=O)O)ccc1Oc1ccccc1 [Example 30, 2-(3-Methyl-4-phenoxy-benzoylamino)-benzoic acid] |

| Compound | EC50 (HM74A) [nM] | melting point [°C] |
| --- | --- | --- |
| 2-[4-(4-Fluoro-phenoxy)-benzoylamino]-benzoic acid [Example 2] | 1100 | – |
